Measurements taken from patent US6534524B1, “Indazole compounds and pharmaceutical compositions for inhibiting protein kinases, and methods for their use” (Agouron Pharmaceuticals, Inc., priority 1999, dated 2003).
Like-named read-outs stand apart in the source and are kept apart here.

How the values were obtained:
[1] = biological target: T1, human CHK1 (FL-CHK1) (Homo sapiens, UniProt O14757); assay: CHK1 assay (coupled spectrophotometric, Syntide-2); type: biochemical; conditions: read-out: CHK-1 Ki
T1 construct: C-terminally His-tagged full-length human CHK1 (FL-CHK1); made in house; host or cells: baculovirus/insect cell system
T1 sequence (O14757 1-476): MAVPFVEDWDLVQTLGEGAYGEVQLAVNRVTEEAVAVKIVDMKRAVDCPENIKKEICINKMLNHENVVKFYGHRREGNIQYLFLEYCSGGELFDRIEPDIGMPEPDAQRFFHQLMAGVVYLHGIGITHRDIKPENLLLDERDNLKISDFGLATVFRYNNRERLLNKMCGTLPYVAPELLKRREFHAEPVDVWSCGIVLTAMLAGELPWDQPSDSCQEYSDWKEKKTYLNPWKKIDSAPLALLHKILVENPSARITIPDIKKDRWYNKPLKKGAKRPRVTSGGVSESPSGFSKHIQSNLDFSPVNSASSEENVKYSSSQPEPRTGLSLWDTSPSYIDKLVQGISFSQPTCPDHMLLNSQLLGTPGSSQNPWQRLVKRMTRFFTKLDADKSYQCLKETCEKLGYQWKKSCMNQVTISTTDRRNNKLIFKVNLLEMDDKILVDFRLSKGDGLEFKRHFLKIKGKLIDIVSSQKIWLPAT
Method in brief: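 Full-length C-terminally His-tagged human CHK1 expressed in baculovirus/insect cells, used at 10 nM with Syntide-2 substrate. ADP formation coupled via PK/LDH to NADH oxidation, followed as absorbance decrease at 340 nm. Ki from initial rates at varying compound concentrations.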

[2] = biological target: CDK1 (Homo sapiens, UniProt P06493); assay: CDK1 inhibition; type: biochemical; conditions: Table 3
CDK1, sequence (P06493 whole entry, species assumed, the tested form may be a part): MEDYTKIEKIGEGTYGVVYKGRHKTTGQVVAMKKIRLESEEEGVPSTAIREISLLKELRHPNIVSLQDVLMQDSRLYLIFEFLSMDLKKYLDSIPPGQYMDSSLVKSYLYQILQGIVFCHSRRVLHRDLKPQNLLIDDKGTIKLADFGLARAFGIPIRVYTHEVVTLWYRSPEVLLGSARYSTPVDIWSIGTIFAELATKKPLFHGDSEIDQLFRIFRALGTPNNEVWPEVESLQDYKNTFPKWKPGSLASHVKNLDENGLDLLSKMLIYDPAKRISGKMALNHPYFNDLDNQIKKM
CDK1, sequence (P14635 whole entry partner, species assumed, the tested form may be a part): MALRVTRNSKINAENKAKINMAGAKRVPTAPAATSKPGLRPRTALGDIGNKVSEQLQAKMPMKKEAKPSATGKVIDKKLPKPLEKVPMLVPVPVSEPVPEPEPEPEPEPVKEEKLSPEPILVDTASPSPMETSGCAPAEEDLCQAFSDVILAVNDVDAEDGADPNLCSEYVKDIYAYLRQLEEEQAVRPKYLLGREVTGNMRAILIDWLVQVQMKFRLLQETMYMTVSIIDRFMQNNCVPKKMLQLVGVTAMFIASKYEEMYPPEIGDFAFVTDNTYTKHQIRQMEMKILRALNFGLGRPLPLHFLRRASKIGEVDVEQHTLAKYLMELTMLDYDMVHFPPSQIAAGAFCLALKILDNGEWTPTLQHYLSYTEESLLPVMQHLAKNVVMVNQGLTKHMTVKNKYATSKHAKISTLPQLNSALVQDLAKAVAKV

[3] = biological target: T2, phosphorylase kinase (truncated catalytic gamma subunit) (Oryctolagus cuniculus, UniProt P00518); assay: Phosphorylase kinase assay; type: biochemical; conditions: 10 μM of compound
T2 construct: (gamma subunit) of phosphorylase kinase (amino acids 1-298); made in house
T2 sequence (P00518 2-299 limits assumed): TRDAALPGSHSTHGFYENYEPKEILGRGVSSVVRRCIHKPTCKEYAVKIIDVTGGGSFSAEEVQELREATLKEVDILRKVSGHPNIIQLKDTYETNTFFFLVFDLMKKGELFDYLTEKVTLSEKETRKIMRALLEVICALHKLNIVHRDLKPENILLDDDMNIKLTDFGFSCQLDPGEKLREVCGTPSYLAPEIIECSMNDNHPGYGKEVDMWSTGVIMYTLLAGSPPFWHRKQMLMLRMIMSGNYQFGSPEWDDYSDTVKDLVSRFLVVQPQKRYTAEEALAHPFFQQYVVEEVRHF
Protocol: Phosphorylase Kinase Assay. In the assay, the purified catalytic subunit is used to phosphorylate phosphorylase b using radiolabled ATP. Briefly, 1.5 mg/ml of phosphorylase b is incubated with 10 nM phosphorylase kinase in 10 Mm MgCl2, 50 mM Hepes pH 7.4, at 37° C. […] The reaction was terminated and proteins were precipitated by the addition of TCA to 10% final concentration. […] The filter plate was then extensively washed with 20% TCA, and dried. Scintilation fluid was then added to the plate and incorporated radiolabel was counted on a Wallac microbeta counter.

[4] = biological target: unphosphorylated VEGF-R2Δ50 (FLVK) (Homo sapiens, UniProt P35968, DEL940-989/E990V); assay: VEGF-R2 coupled spectrophotometric assay, unphosphorylated VEGF-R2Δ50 (FLVK)
unphosphorylated VEGF-R2Δ50 (FLVK), sequence (P35968 with tags, fused parts or gaps DEL940-989/E990V limits assumed): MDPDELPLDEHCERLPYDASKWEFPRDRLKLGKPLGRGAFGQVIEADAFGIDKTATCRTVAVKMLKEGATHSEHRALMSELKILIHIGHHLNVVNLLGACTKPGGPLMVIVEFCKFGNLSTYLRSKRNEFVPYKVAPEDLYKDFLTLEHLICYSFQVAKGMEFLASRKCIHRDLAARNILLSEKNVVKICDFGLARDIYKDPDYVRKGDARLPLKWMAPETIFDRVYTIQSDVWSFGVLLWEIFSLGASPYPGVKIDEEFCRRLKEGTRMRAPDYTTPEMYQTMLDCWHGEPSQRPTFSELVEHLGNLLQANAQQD

[5] = biological target: T3, LCK tyrosine kinase (Homo sapiens, UniProt P06239, C224D/P223M); assay: LCK spectrophotometric assay; type: biochemical; conditions: Table 1; for inhibition at 1 µM: compound concentration 1 μM, read-out: Lck-P % inhibition
T3 construct: starting from amino acid residue 223 to the end of the protein at residue 509; made in house; host or cells: insect cells
T3 sequence (P06239 223-509 P223M/C224D): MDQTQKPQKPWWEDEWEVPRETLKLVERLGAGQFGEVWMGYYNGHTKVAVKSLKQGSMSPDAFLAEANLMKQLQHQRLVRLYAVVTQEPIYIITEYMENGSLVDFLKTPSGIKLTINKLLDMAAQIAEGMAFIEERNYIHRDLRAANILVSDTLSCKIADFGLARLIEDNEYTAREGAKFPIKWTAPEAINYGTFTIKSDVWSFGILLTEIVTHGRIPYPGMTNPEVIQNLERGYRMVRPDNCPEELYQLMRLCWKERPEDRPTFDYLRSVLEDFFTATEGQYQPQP
Protocol: The production of ADP from ATP that accompanies phosphoryl transfer was coupled to oxidation of NADH using phosphoenolpyruvate (PEP) and a system having pyruvate kinase (PK) and lactic dehydrogenase (LDH). The oxidation of NADH was monitored by following the decrease of absorbance at 340 nm (e340=6.22 cm^−1 mM^−1) using a Beckman DU 650 spectrophotometer. […] Ki values were determined by measuring enzyme activity in the presence of varying concentrations of test compounds. The data were analyzed using Enzyme Kinetic and Kaleidagraph software.
The spectrophotometric assay was carried out as described above for VEGF-R2, except for the following changes in concentration: LCK=60 nM, MgCl2=0 mM, poly(E4Y1)=20 mM.

[6] = biological target: CDK2/Cyclin A (Homo sapiens, UniProt P24941); assay: CDK2/Cyclin A assay ([32P]ATP, Rb fragment); type: biochemical; conditions: Table 1
[7] = Mouse PK assay; type: in vivo; conditions: female, B6, plasma, oral
Protocol: Mouse PK Assay The pharmacolinetics (e.g., absorption and elimination) of drugs in mice were analyzed using the following experiment. […] This was administered orally (p.o.) and intraperitoneally (i.p.) at variable doses to two distinct groups (n=4) of B6 female mice. Blood samples were collected via an orbital bleed at time points: 0 hour (pre-dose), 0.5 h, 1.0 h, 2.0 h, and 4.0 h, and 7.0 h post dose. Plasma was obtained from each sample by centrifugation at 2500 rpm for 5 min. Test compound was extracted from the plasma by an organic protein precipitation method. For each time bleed 50 μL of plasma was combined with 1.0 mL of acetonitrile, vortexed for 2 min. and then spun at 4000 rpm for 15 min. to precipitate the protein and extract out the test compound. Next, the acetonitrile supernatant (the extract containing test compound) was poured into new test tubes and evaporated on a hot plate (25° C.) under a steam of N2 gas. […] Test-compound plasma concentrations (μg/mL) were determined by a comparison to standard curve (peak area vs. conc. μg/mL) using known concentrations of test compound extracted from plasma samples in the manner described above. […] The quantitated test samples were plotted for visual display using Kalidagraph software and their pharmacokinetic parameters were determined using WIN NONLIN software.

[8] = Human liver microsome (HLM) assay; type: in vitro ADME; conditions: human liver microsomes, 5 μM test compound
Method in brief: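 LC-MS quantified test compound remaining after 0 and 2 h incubation with human liver microsomes. Triplicate samples, clarified by 10 min centrifugation at 14000 g.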

[9] = Determination of inhibitor concentration in mouse plasma after intraperitoneal and oral dosing; type: in vivo
Method in brief: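 Plasma levels quantified by HPLC or LC-MS using a standard curve prepared in mouse plasma, following ethyl acetate extraction with internal standard and sodium hydroxide. Sampling at 0.5, 1, 4 h (ocular bleed) and 7 h (cardiac puncture) after oral or intraperitoneal dosing.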

[10] = biological target: human FGF-R1 (Homo sapiens, UniProt P11362, C488A/C584S/L457V); assay: FGF-R spectrophotometric assay
human FGF-R1, sequence (P11362 456-766 L457V/C488A/C584S): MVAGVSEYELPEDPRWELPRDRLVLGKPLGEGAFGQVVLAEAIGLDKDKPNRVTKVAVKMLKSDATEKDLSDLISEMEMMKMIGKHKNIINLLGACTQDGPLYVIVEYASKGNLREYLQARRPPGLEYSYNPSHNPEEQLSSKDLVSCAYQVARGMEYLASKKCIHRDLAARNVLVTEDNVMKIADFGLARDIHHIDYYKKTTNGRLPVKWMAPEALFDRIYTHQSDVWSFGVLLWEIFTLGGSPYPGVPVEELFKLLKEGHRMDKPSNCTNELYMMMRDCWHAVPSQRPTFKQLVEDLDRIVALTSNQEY

[11] = biological target: CDK4/Cyclin D3 complex (Homo sapiens, UniProt P11802); assay: CDK4/Cyclin D assay ([32P]ATP, Rb fragment)
CDK4/Cyclin D3 complex, sequence (P11802 whole entry, the tested form may be a part): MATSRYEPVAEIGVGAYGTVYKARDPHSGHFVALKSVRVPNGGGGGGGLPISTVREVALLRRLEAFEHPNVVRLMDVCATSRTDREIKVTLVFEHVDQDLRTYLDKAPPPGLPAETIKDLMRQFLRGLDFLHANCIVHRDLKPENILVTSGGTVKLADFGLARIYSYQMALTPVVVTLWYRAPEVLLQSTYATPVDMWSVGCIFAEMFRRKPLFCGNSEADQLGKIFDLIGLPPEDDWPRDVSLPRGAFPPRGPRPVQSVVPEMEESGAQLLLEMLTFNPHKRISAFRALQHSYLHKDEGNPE
CDK4/Cyclin D3 complex, sequence (P30281 whole entry partner, the tested form may be a part): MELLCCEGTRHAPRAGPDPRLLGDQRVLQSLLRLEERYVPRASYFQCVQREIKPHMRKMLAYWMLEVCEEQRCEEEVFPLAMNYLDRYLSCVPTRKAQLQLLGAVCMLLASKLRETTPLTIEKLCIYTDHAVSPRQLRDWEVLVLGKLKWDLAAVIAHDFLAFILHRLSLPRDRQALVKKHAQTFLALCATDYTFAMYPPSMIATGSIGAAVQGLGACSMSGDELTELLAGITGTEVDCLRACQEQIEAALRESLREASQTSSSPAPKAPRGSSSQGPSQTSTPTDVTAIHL

[12] = biological target: phosphorylated VEGF-R2Δ50 (FLVK-P) (Homo sapiens, UniProt P35968, DEL940-989/E990V); assay: VEGF-R2 coupled spectrophotometric assay, phosphorylated VEGF-R2Δ50 (FLVK-P)
phosphorylated VEGF-R2Δ50 (FLVK-P), sequence (P35968 with tags, fused parts or gaps DEL940-989/E990V limits assumed): as the sequence (P35968 with tags, fused parts or gaps DEL940-989/E990V limits assumed) above

[13] = Isomerization under assay conditions; type: physicochemical; conditions: Z-isomer
Protocol: Example 33(h) was prepared in the same reaction as Example 33(d). […] Found: C, (66.36), H, (4.08), N, (11.49), S, (6.55).

[14] = tested on: human umbilical vein endothelial cells (HUVEC); assay: HUVEC proliferation assay (VEGF-stimulated, MTT); type: cell-based; conditions: Homo sapiens, HUVEC
[15] = tested on: lung cancer cells (line MV522); assay: Cancer cell proliferation (MV522) assay; type: cell-based
Protocol: Cancer Cell Proliferation (MV522) Assay
The protocol for assessing cellular proliferation in cancer cells is similar to that used for assessments in HUVEC cells. Two thousand lung cancer cells (line MV522, acquired from American Tissue Cultural Collection) were seeded in growth media (RPMI1640 medium supplemented with 2 mM glutamine and 10% FBS). Cells are allowed to attach for 1 day prior to addition of test agents and/or vehicles. Cells are treated simultaneously with the same test agents used in the HUVEC assay. Cellular proliferation is quantified by MTT dye reduction assay 72 hours after exposure to test agents. The total length of the assay is 4 days vs. 5 for HUVEC cells because MV522 cells are not exposed to starvation medium.

[16] = tested on: VEGF dependent retinal neovascularization; assay: In vivo assay of retinal vascular development in neonatal rat model of retinopathy of prematurity; conditions: ROP model; intravitreal; 10 mg/ml; vehicle PEG/water 70:30
Protocol: In Vivo Assay of Retinal Vascular Development in Neonatal Rat Model of Retinopathy of Prematurity A second model of VEGF dependent retinal neovascularization was employed to evaluate the activities of this series of compounds. […] This alternating cycle of hyperoxia followed by hypoxia is repeated 7 times after which the animals are removed to room air (P14). Compounds are administered via intravitreal injection upon removal to room air and the animals are sacrificed 6 days later (P20). The isolated retinas are then isolated, stained mounted and analyzed as detail above in the development model. The effectiveness was also graded as is described for the development model.

[17] = IP, 50 mg/kg, vehicle PEG400:H2O pH 2.3 30:70
[18] = + albumin, read-out: HUVEC + albumin IC50
[19] = IP, 25 mg/kg, vehicle PEG400:H2O pH 2.3 60:40
[20] = PO, 50 mg/kg, vehicle PEG400:H2O pH 2.3 60:40

Q: With `C(=C\c1n[nH]c2cc(-c3ccnc4[nH]ccc34)ccc12)/c1ccccc1` [Example 52(b), 6-(7-Azaindol-4-yl)-3-E-styryl-1H-indazole] as the compound, how does the Ki ([1]; Table 3) read?
A: 0.08 µM

Q: And the Ki [2]?
A: 0.041 µM

Q: What about the inhibition at 10 µM [3] of the same compound?
A: 92%

Q: And the inhibition at 1 µM ([4]; read-out: FLVK % inhibition)?
A: 94%

Q: With `COc1cc(-c2ccc3c(/C=C/c4ccc(OC)c(OC)c4)n[nH]c3c2)ccc1O` [Example 1(a), 3-[E-2-(3,4-Dimethoxy-phenyl)vinyl]-6-(3-methoxy-4-hydroxy-phenyl)-1H-indazole] as the compound, how does the Ki ([5]; read-out: Lck-P Ki) read?
A: 0.088 µM

Q: What about the Ki ([1]; Table 1) of the same compound?
A: 0.0052 µM

Q: And the Ki [6]?
A: 0.019 µM

Q: What about the AUC [7] of the same compound?
A: 330 ng·h/mL

Q: What about the “% remain (HLM, 2 h)” value [8] of the same compound?
A: 98%

Q: What about the AUClast [9, 17] of the same compound?
A: 691 ng·h/mL

Q: What about the Cmax [9, 17] of the same compound?
A: 283 ng/mL

Q: And the “plasma half-life (T1/2)” value [9, 17]?
A: 2.4 h

Q: And the Ki [10]?
A: 0.027 µM

Q: What about the Ki [11] of the same compound?
A: 0.013 µM

Q: And the Ki ([4]; FLVK Ki, Table 1)?
A: 0.0003 µM

Q: And the Ki [12]?
A: 0.002 µM

Q: Which “Isomerization under assay conditions” value [13] does the source give for `O=C(Nc1cccc(Cl)c1)c1ccccc1Sc1ccc2c(/C=C\c3ccccn3)n[nH]c2c1` [Example 33(h), 6-[2-(3-Chlorophenylcarbamoyl)phenylsulfanyl]-3-Z-[2-(pyridin-2-yl)ethenyl]-1H-indazole] here?
A: found to isomerize to Example 33(d) under assay conditions

Q: With `Cc1cc(C(=O)Nc2cc(Nc3ccc4c(/C=C/c5ccccn5)n[nH]c4c3)ccc2F)n(C)n1` [Example 49(a), 6-[N-(3-((1,3-Dimethyl-1H-pyrazol-5-yl)carboxamido)-4-fluoro-phenyl)amino]-3-E-[2-(pyridin-2-yl)ethenyl]-1H-indazole] as the compound, how does the inhibition at 1 µM [5] read?
A: 11%

Q: What about the IC50 [14, 18] of the same compound?
A: ~0.004 µM

Q: What about the IC50 [15] of the same compound?
A: 8.4 µM

Q: And the AUClast ([9]; PO, 25 mg/kg, vehicle PEG400:H2O pH 2.3 30:70)?
A: 712 ng·h/mL

Q: What about the concentration at 7 h ([9]; female, PO, 25 mg/kg, vehicle PEG400:H2O pH 2.3 30:70, read-out: Cmin (7 hr conc.)) of the same compound?
A: 15 ng/mL

Q: And the Ki [10]?
A: 0.079 µM

Q: Which IC50 [14, 18] does the source give for `O=C(c1cccc(NC(=O)c2cccc3[nH]ccc23)c1)c1ccc2c(/C=N/n3cccc3)n[nH]c2c1` [Example 45(a), 6-[3-(Indol-4-ylcarboxamido)benzoyl]-3-E-[N-(pyrrol-1-yl)iminomethyl]-1H-indazole] here?
A: ~0.015 µM

Q: And the IC50 ([14]; read-out: HUVEC IC50)?
A: 0.0031 µM

Q: What about the IC50 [15] of the same compound?
A: 3.5 µM

Q: What does the source list for `O=C(Nc1cccc(C(=O)c2ccc3c(/C=N/n4cccc4)n[nH]c3c2)c1)c1ccccc1` [Example 45(b), 6-(3-Benzamidobenzoyl)-3-E-[N-(pyrrol-1-yl)iminomethyl]-1H-indazole]?
A: inhibition at 1 µM [5]: 86%; IC50 [15]: 4.4 µM; AUClast [9, 19]: 11361 ng·h/mL; plasma half-life (T1/2) [9, 19]: 2.0 h; AUClast [9, 20]: 1636 ng·h/mL; plasma half-life (T1/2) [9, 20]: 3.0 h; Initial Evaluation [16]: ++ (two pluses being judged to be approximately 25-75% regression); inhibition at 1 µM ([10]; read-out: FGF-P % inhibition, Table 1, compound concentration 1 μM): 79%; inhibition at 0.05 µM ([4]; read-out: FLVK % inhibition): 99%
